Test results reported in ChEMBL document CHEMBL1152223, “Analogues of 2-phenyl-ethenesulfonic acid phenyl ester have dual functions of inhibiting expression of inducible nitric oxide synthase and activating peroxisome proliferator-activated receptor gamma” (Bioorg Med Chem Lett, 2008).
The source made the active and inactive calls. The rule behind the calls is not given here.

Experiments:
RAW264.7 [1] = assay: Suppression of LPS/IFN-gamma-stimulated NO production in mouse RAW264.7 cells at 10 uM; type: functional
[2] = target: T1, Peroxisome proliferator-activated receptor gamma (Homo sapiens, UniProt P37231); assay: Displacement of [3H]BRL49653 from PPARgamma ligand binding domain by scintillation proximity assay
T1 sequence (P37231 whole entry): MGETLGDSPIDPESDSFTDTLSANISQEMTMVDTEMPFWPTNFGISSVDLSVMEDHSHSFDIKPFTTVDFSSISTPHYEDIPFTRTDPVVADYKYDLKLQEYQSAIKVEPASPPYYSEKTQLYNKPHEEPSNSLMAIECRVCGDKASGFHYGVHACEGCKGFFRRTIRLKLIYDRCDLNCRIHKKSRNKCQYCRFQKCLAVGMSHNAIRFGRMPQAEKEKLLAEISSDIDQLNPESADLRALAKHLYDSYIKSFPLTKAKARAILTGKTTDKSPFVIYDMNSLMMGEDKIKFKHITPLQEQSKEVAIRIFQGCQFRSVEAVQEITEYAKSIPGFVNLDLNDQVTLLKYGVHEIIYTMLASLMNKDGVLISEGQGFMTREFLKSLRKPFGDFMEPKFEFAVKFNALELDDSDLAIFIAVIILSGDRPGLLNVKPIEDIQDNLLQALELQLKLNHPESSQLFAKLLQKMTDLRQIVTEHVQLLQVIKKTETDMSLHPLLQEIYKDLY

RAW264.7 [3] = assay: Suppression of LPS/IFN-gamma-stimulated NO production in mouse RAW264.7 cells; type: functional, cell-based
[4] = Cytotoxicity against mouse RAW264.7 cells; type: cell-based
RAW264.7 [5] = assay: Inhibition of iNOS expression in LPS/IFN-gamma-stimulated mouse RAW264.7 cells at 5 uM; type: functional, cell-based
RAW264.7 [6] = assay: Inhibition of iNOS expression in LPS/IFN-gamma-stimulated mouse RAW264.7 cells at 10 uM; type: functional, cell-based

| SMILES | Activity (RAW264.7 [1]) [%] | IC50 [2] [µM] | IC50 (RAW264.7 [3]) [µM] | GI50 [4] [µM] | also measured |
| --- | --- | --- | --- | --- | --- |
| NS(=O)(=O)c1ccc(NS(=O)(=O)/C=C/c2ccccc2)cc1 | 0 | – | – | – | – |
| O=S(=O)(CCc1ccccc1)Oc1ccccc1 | 2 | – | – | – | – |
| O=S(=O)(/C=C/c1ccccc1)Oc1ccccc1 | – | 1.33 | 6.66 | > 80 | Activity (RAW264.7 [5]): Active; Activity (RAW264.7 [6]): Active |
| O=S(=O)(/C=C/c1ccccc1)Oc1ccc(Cl)cc1 | – | 0.302 | 2.35 | 75.3 | – |
| CCOc1ccc(NS(=O)(=O)/C=C/c2ccccc2)cc1 | 0 | – | – | – | – |
| O=S(=O)(/C=C/c1ccccc1)Nc1ccc(Br)cc1 | 5 | – | – | – | – |
| Cc1ccc(OS(=O)(=O)/C=C/c2ccccc2)cc1 | – | 0.407 | 2.77 | > 80 | Activity (RAW264.7 [5]): Active; Activity (RAW264.7 [6]): Active |
| Cc1cccc(OS(=O)(=O)CCc2ccccc2)c1 | 0 | – | – | – | – |
| Cc1cccc(OS(=O)(=O)/C=C/c2ccccc2)c1 | – | 1.19 | 3.45 | 62.5 | – |
| Cc1ccc(NS(=O)(=O)/C=C/c2ccccc2)cc1 | 8 | – | – | – | – |
| COc1ccc(OS(=O)(=O)/C=C/c2ccccc2)cc1 | – | 1.29 | 7.45 | – | – |
| O=S(=O)(CCc1ccccc1)Oc1c(Cl)cc(Cl)cc1Cl | 10 | – | – | – | – |
| CN(CCOc1ccc(CC2SC(=O)NC2=O)cc1)c1ccccn1 (stereo unspecified) [ROSIGLITAZONE] | – | – | 17.5 | – | – |
| O=S(=O)(/C=C/c1ccccc1)Oc1ccc2ccccc2c1 | – | 1.09 | 6.18 | > 80 | – |
| CCS(=O)(=O)Oc1cccc(Oc2ccccc2)c1 | 11 | – | – | – | – |
| CCCCC/C=C/C=C1/C(=O)C=C[C@@H]1C/C=C\CCCC(=O)O | – | – | 2.2 | – | Activity (RAW264.7 [5]): Active; Activity (RAW264.7 [6]): Active |
| CCOC(=O)c1ccc(OS(=O)(=O)/C=C/c2ccccc2)cc1 | – | 0.747 | 9.88 | > 80 | – |

| SMILES | Activity (RAW264.7 [1]) [%] | IC50 [2] [µM] | IC50 (RAW264.7 [3]) [µM] | GI50 [4] [µM] | also measured |
| --- | --- | --- | --- | --- | --- |
| O=C(O)c1cccc(OS(=O)(=O)CCc2ccccc2)c1 | 6 | – | – | – | – |
| O=S(=O)(Cc1ccccc1)Oc1ccccc1Cl | 0 | – | – | – | – |
| O=S(=O)(Cc1ccccc1)Oc1ccc2ccccc2c1 | 7 | – | – | – | – |
| COc1cccc(NS(=O)(=O)/C=C/c2ccccc2)c1 | 12 | – | – | – | – |
| O=S(=O)(CCc1ccccc1)Oc1ccc(Cl)cc1 | 4 | – | – | – | – |
| O=S(=O)(/C=C/c1ccccc1)Oc1cccc(Oc2ccccc2)c1 | – | 0.382 | 16.2 | > 80 | – |
| O=C(O)c1cccc(OS(=O)(=O)/C=C/c2ccccc2)c1 | – | 13.5 | 21.6 | > 80 | – |
| O=C(O)c1cccc(NS(=O)(=O)/C=C/c2ccccc2)c1 | 1 | – | – | – | – |
| CC(=O)Nc1ccc(OS(=O)(=O)/C=C/c2ccccc2)cc1 | – | 10.7 | 19.9 | > 80 | – |
| O=S(=O)(CCc1ccccc1)Oc1ccc2ccccc2c1 | 6 | – | – | – | – |
| O=S(=O)(/C=C/c1ccccc1)Oc1c(Cl)cc(Cl)cc1Cl | – | 1.44 | 1.83 | > 80 | Activity (RAW264.7 [5]): Active; Activity (RAW264.7 [6]): Active |
| O=C(O)c1ccc(NS(=O)(=O)/C=C/c2ccccc2)cc1 | 2 | – | – | – | – |
| O=Cc1ccc(OS(=O)(=O)/C=C/c2ccccc2)cc1 | – | 2.1 | 9.72 | > 80 | Activity (RAW264.7 [5]): Active; Activity (RAW264.7 [6]): Active |
| O=S(=O)(/C=C/c1ccccc1)Oc1ccc(OCc2ccccc2)cc1 | – | 0.703 | 9.3 | > 80 | Activity (RAW264.7 [5]): Active; Activity (RAW264.7 [6]): Active |
| O=S(=O)(/C=C/c1ccccc1)Nc1ccccc1 | 4 | – | – | – | – |
| O=S(=O)(Cc1ccccc1)Oc1ccccc1 [PHENYL PHENYLMETHANESULFONATE] | 3 | – | – | – | – |
| COc1ccc(NS(=O)(=O)/C=C/c2ccccc2)cc1 | 5 | – | – | – | – |
